Structures can show the parent of a compound that is named as a salt. Where two headings read alike, the source gives them in different places.
Key:
[1] = biological target: peripheral opioid receptors (Mus musculus, UniProt P42866); test: mouse diarrhea test: precipitated diarrhea in morphine-maintained mice (peripheral opioid activity); type: in vivo; settings: mouse diarrhea test, morphine-maintained mice, subcutaneous or oral, 30 min observation
[2] = test system: peripheral opioid receptors; test: as above; type: in vivo; settings: AD50 mouse writhing / ED50 mouse diarrhea; higher = greater relative peripheral antagonism
mu receptor = biological target: T1, mu receptor (Rattus norvegicus, UniProt P33535); test: Naloxone [3H] opioid receptor binding assay (mu receptor); set-up: species or system rat (male Sprague Dawley); settings: 20 min; for Ki: rat whole brain minus cerebellum, pH 7.4, 37° C., read-out: Ki
T1 construct: The brain tissue, rat whole brain minus cerebellum for mu was homogenized; from tissue; host or cells: brain minus cerebellum of male Sprague Dawley rats, homogenate fraction
T1 sequence (P33535 whole entry): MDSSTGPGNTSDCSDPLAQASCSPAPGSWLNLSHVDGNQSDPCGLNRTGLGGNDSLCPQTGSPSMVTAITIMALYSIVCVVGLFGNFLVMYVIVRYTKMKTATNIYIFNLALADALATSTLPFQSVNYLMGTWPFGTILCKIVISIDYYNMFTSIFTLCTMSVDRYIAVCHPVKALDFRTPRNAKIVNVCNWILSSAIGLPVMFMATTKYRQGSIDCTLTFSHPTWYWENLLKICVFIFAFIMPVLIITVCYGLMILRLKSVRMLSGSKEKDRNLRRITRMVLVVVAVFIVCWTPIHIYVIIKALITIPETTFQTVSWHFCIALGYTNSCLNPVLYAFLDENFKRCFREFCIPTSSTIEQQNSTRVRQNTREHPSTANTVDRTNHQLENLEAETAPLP

opioid receptor = biological target: T2, opioid receptor (Mus musculus, UniProt P42866); test: in vivo; set-up: species or system CF-1 male mice; settings: sc; mouse writhing test; […]; s.c. 20 min before acetic acid; read-out: AD50 (the source's name)
T2 construct: Five CF-1 male mice (Charles River, Portage, MI); from tissue; host or cells: living CF-1 male mice (whole animal, endogenous receptor)
T2 sequence (P42866 whole entry): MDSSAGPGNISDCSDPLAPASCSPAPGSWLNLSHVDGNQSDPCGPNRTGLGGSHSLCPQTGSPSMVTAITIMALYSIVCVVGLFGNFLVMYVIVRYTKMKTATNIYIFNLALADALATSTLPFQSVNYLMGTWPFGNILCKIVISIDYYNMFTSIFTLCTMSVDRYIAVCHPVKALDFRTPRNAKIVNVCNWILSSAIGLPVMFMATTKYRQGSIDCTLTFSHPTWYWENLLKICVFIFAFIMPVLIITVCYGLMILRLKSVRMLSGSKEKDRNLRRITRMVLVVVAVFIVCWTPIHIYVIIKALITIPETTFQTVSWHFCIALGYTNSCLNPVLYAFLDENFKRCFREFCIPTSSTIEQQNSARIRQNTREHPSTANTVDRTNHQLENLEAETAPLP

[3] = pH 7.4, 10 nM test compound, [3H]naloxone 0.5 nM, mu receptor, read-out: % displacement at 10 nM
[4] = pH 7.4, 100 nM test compound, [3H]naloxone 0.5 nM, mu receptor, read-out: % displacement at 100 nM
[5] = pH 7.4, read-out: % displacement at 10 nM
[6] = pH 7.4, read-out: % displacement at 100 nM

Sequence of peripheral opioid receptors (Mus musculus, UniProt P42866) (P42866 whole entry): as above

| Compound | ED50 ([1]; 0.5 h, read-out: ED50) [mg/kg] | Ratio (ratio of AD50 to ED50) [2] | inhibition at 0.01 µM (mu receptor; [3]) [%] | inhibition at 0.1 µM (mu receptor; [4]) [%] | ED50 (opioid receptor) [mg/kg] | ED50 [1] [mg/kg] | inhibition at 0.01 µM (mu receptor; [5]) [%] | inhibition at 0.1 µM (mu receptor; [6]) [%] | Ki (mu receptor; [3H]naloxone 0.5 nM) [nM] |
| --- | --- | --- | --- | --- | --- | --- | --- | --- | --- |
| CC(C)CN(CCCN1CC[C@@](C)(c2cccc(O)c2)[C@@H](C)C1)C(=O)CCCC(=O)O (relative stereo) [Example 29, 5-(2-Methylpropyl-(3-(trans-4-(3-hydroxyphenyl)-3,4-dimethyl-1-piperidinyl)propyl)amino)-5-oxopentanoic acid monohydrate] | 0.99 | 7.7 | 56 | 88 | 7.6 |  |  |  |  |
| C[C@@H]1CN(C[C@H](CC2CCCCC2)NC(=O)CCCC(=O)OCC(N)=O)CC[C@]1(C)c1cccc(O)c1 [Example 60] |  | > 285 |  |  | > 10 | 0.035 | 76 | 95 | 5.96 |
| CC(=O)NC(CCCNC(=N)N[N+](=O)[O-])C(=O)NCCN1CCC(C)(c2cccc(O)c2)C(C)C1 (stereo not drawn) [Example 42, N-(2-(trans-4-(3-hydroxyphenyl)-3,4-dimethyl-1-piperidinyl)ethyl)-2-(acetylamino)-5-((imino(nitroamino)-methyl)amino)pentanamide monohydrate] | 0.12 | > 160 | 44 | 89 | > 20 |  |  |  |  |
| CCOC(=O)CCC(=O)NC(CCN1CC[C@@](C)(c2cccc(O)c2)[C@@H](C)C1)CC(C)C (single isomer, unassigned) [Example 2A, 4-[[1-[2-[4-(3-hydroxyphenyl)-3,4-dimethyl-1-piperidinyl]-ethyl]-3-methylbutyl)amino]-4-oxobutanoic acid ethyl ester] |  | 29 |  |  | 8.4 | 0.29 | 98 | 100 | 0.64 |
| Cc1oc(=O)oc1COC(=O)CCCC(=O)N[C@@H](CC1CCCCC1)CN1CC[C@@](C)(c2cccc(O)c2)[C@@H](C)C1 [Example 70] |  | 1070 |  |  | 18.2 | 0.017 | 89 | 99 | 1.78 |
| CCOC(=O)CCC(=O)N(CCN1CC[C@@](C)(c2cccc(O)c2)[C@@H](C)C1)C1CCCCC1 (relative stereo) [Example 71] |  | 13 |  |  | 3.71 | 0.29 | 78 | 96 | 3.85 |
| C[C@H]1CN(CC(Cc2ccccc2)NC(=O)CCCNC(=O)OC(C)(C)C)CC[C@@]1(C)c1cccc(O)c1 (stereo partly drawn) [Example 18, Trans-(4-((1-((4-(3-hydroxyphenyl)-3,4-dimethyl-1-piperidinyl)methyl)-2-phenylethyl)amino)-4-oxobutyl) carbamic acid, 1,1 dimethylethyl ester monohydrochloride] |  | 4.5 |  |  | 1.31 | 0.30 | 86 | 100 | 0.63 |
| CC(C)COC(=O)CCCC(=O)N[C@H](CC1CCCCC1)CN1CC[C@@](C)(c2cccc(O)c2)[C@@H](C)C1 [Example 59] | 0.059 | > 678 | 6 | 53 | > 40 |  |  |  |  |
| C[C@H]1CN(CCN(C(=O)CCC(=O)O)c2ccccc2)CC[C@@]1(C)c1cccc(O)c1 (relative stereo) [Example 19, 4-((2-(Trans-4-(3-hydroxyphenyl)-3,4-dimethyl-1-piperidinyl)ethyl)phenylamino-4-oxobutanoic acid monohydrate] | 0.082 | 77 | 48 | 92 | 6.3 |  |  |  |  |

Source: patent US5159081A, “Intermediates of peripherally selective N-carbonyl-3,4,4-trisubstituted piperidine opioid antagonists” (Eli Lilly and Company, priority 1991, dated 1992)
